We go through three molecules from patent US4623656A, “Method for inhibiting monoamine oxidase-A and treating depression by administering 3-N-methyl-thioxanthen-9-one carboxamide 10,10-dioxide” (priority 1984, dated 1986).

The term Ki denotes the dissociation constant of the complex between target and ligand, obtained from inhibition or displacement. A high value points to a looser hold on the target. The term ED50 denotes the dose that gives a 50% effect, or the effect in half of the subjects. A higher ED50 goes with a need for a large dose.

The target in data set [1] is T1, MAO-A (Rattus norvegicus, UniProt P21396).
T1 construct: mitochondrial extracts of rat or human brain; from tissue; host or cells: rat brain, mitochondrial extract
T1 sequence (P21396 1-526): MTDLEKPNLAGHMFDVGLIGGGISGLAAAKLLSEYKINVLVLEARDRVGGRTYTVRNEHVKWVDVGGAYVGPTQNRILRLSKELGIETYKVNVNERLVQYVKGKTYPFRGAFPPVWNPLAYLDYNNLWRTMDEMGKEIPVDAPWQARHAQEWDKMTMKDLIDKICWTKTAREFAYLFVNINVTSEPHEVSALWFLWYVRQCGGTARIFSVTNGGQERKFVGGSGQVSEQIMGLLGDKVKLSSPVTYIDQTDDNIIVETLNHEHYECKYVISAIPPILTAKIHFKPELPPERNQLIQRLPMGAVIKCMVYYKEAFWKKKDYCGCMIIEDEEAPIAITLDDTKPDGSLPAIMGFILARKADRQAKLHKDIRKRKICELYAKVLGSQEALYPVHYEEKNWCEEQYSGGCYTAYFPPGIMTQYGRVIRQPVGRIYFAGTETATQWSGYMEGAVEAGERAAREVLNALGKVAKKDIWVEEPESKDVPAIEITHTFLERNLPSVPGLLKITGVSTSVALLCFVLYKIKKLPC
Put plainly: In vitro MAO-A inhibition, double-label assay, mitochondrial extracts of rat brain. Format: biochemical. The procedure:
(§1) MAO was assayed with [^3 H] serotonin (0.2 mM, 5 Ci/mol) and [^14 C] β-phenethylamine (10 μM, 3 Ci/mol) as substrates in a double-label assay (White and Glassman, J. Neurochem 29:987-97 1977).

Data set [2] deals with T2, MAO-A (Homo sapiens, UniProt P21397).
T2 construct: mitochondrial extracts of rat or human brain; from tissue; host or cells: human brain, mitochondrial extract
T2 sequence (P21397 1-527): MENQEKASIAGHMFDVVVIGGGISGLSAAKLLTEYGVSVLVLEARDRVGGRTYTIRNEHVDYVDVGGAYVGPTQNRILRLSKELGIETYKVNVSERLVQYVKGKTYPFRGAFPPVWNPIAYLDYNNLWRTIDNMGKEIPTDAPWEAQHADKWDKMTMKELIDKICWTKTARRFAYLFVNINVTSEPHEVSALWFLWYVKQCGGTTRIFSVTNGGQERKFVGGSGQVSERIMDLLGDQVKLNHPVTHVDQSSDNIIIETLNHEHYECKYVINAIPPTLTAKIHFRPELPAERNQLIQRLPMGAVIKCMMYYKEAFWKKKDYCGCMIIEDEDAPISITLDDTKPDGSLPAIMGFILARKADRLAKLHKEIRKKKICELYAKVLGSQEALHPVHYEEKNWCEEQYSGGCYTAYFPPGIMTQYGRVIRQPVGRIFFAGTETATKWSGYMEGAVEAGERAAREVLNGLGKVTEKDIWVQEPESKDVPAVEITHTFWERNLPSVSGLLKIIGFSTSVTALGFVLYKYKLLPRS
As to the kind of experiment: In vitro MAO-A inhibition, double-label assay, mitochondrial extracts of human brain. Format: biochemical. On the procedure: as §1

The target in data set [3] is MAO-A. Put plainly: Kinetic mechanism of MAO-A inhibition (single substrate varied). Format: biochemical, rat or human. The procedure:
For studies of the kinetic mechanism of inhibition, the above method was used, except that a single substrate (serotonin or tyramine) was varied over a 10-fold concentration range that included the Km concentration. MAO activity was determined in the absence and presence of the compound under test at each substrate concentration in duplicate assays.

The next data set relates to MAO-A (brain). As to the kind of experiment: In vivo inhibition of brain MAO-A in orally pretreated rats. As to conditions: for Percentage Inhibition of MAO-A, Brain: 3 hr after oral dosing; for Inhibition of brain MAO-A by the time of tyramine administration: single oral dose, equipotent doses for tyramine test. Set-up: species or system rat. On the procedure: (§2) To determine MAO inhibition in brains and livers of rats pretreated with reversible inhibitors, it was necessary to use an assay procedure that minimized dilution of the inhibitor. Thus, high concentrations of brain tissue homogenates were incubated for very short incubation times. For brain assays, initial tissue was 3-fold diluted into each assay. Because of the very high MAO activity in liver homogenates, further dilution of tissue was necessary in order to obtain reliable data. In this case, three different homogenate concentrations were assayed, and precent inhibition was extrapolated to zero tissue dilution. Substrate concentrations were not saturating, but were chosen relative to Km values for serotonin and phenethylamine in order to give an estimate of MAO-A and B, respectively.
(§3) Brains from pretreated male Sprague-Dawley rats (sacrificed 3 hours after oral dosing), were homogenized in a buffer consisting of 0.1M potassium phosphate and 5% sucrose (pH 7.4) at a 1:1 tissue wt/buffer volume ratio, using a motorized Teflon/glass homogenizer. MAO-A and B were determined by incubating 100 μl of tissue homogenate with 50 μl of a double-label substrate mixture to give final concentrations of [^3 H] serotonin, 0.4 mM (5 Ci/mol); and [^14 C] β-phenethylamine, 20 μM (3 Ci/mol). For blank assays 100 μl portions of homogenate were pre-incubated at 37° C. with pargyline (4 mM) before substrate addition. Incubations were at 37° C. for 30 sec. Assay mixtures were then acidified and products extracted as in the above in vitro method (White and Glassman). Liver tissue was homogenized in the above phosphate-sucrose buffer at a 1:5 tissue wt/buffer volume ratio. Portions (5, 10 and 50 μ l) of each homogenate were assayed with 50 μl of the above double-label substrate mixture in a total assay volume of 150 μl 0.067M potassium phosphate, pH 7.4. Blank assays included the same amounts of homogenate pre-incubated with 4 mM pargyline for 15 min at 37° C. After addition of substrates, mixtures were incubated at 37° C. for 20 sec, acidified, and products extracted as above. Percent inhibition for each liver homogenate was obtained by plotting % inhibition vs. reciprocal of tissue concentration and extrapolating back to zero dilution.

The subject of the next data set is MAO-A (liver). As to the kind of experiment: In vivo inhibition of liver MAO-A in orally pretreated rats. Also on record: species or system rat. To be noted: for Percentage Inhibition of MAO-A, Liver: 3 hr after oral dosing, extrapolated to zero tissue dilution; for Inhibition of liver MAO-A by the time of tyramine administration: single oral dose, equipotent doses for tyramine test. On the procedure: as §2, §3

The next data set deals with MAO-B (brain). As to the kind of experiment: In vivo inhibition of brain MAO-B in orally pretreated rats. Also on record: species or system rat. To be noted: 12.5-50 mg/kg p.o., 3 hr after oral dosing. On the procedure: as §2
(§4) Brains from pretreated male Sprague-Dawley rats (sacrificed 3 hours after oral dosing), were homogenized in a buffer consisting of 0.1M potassium phosphate and 5% sucrose (pH 7.4) at a 1:1 tissue wt/buffer volume ratio, using a motorized Teflon/glass homogenizer. MAO-A and B were determined by incubating 100 μl of tissue homogenate with 50 μl of a double-label substrate mixture to give final concentrations of [^3 H] serotonin, 0.4 mM (5 Ci/mol); and [^14 C] β-phenethylamine, 20 μM (3 Ci/mol). […]

The test system of the next data set is MAO-B (liver). Put plainly: In vivo inhibition of liver MAO-B in orally pretreated rats. Also on record: species or system rat. As to conditions: 12.5-50 mg/kg p.o., 3 hr after oral dosing. The procedure:
as §2, §4

In another data set the test system is MAO. As to the kind of experiment: Time course of in vivo MAO inhibition after oral dosing (other experiments, tissue not stated). Also on record: species or system rat. To be noted: oral dose of 50 mg/Kg. On the procedure: as §2
as §3, with “([…]),” for “(sacrificed 3 hours after oral dosing),”, “Percent inhibition for each liver homogenate was obtained by plotting % inhibition vs. reciprocal of tissue concentration and extrapolating back to zero dilution.” left out

The test system of another data set is hypertensive activity. As to the kind of experiment: Hypertensive activity with orally ingested tyramine in test animals. Format: in vivo. As to conditions: oral antidepressant doses prior to orally ingested tyramine.
For data set [4], the system named is tetrabenazine-induced sedation. Put plainly: Prevention of tetrabenazine-induced sedation. Format: in vivo, Charles River CD-1 male mice. On the procedure: Charles River CD-1 male mice (18-22 gm) were pretreated orally with various doses of Compound I or the reference standard, phenelzine, 60 min, 3 hr, or 5 hr before injection of tetrabenazine (35 mg/kg i.p.). […] Thirty minutes after injection of tetrabenazine, each mouse was scored on an arbitrary scale from one to four according to Vernier et al., ([…] Syomp. on Psychosomatic Medicine, J. H. Nodin and J. H. Moyer Eds., Lea and Febiger, Philadelphia, 1962, pp 683-90) for both depression of exploratory behaviour and presence or absence of blepharoptosis. Ratings were converted to a percent of rating received by mice receiving […] prior to tetrabenazine administration.

Where [5] appears, read: read-out: I50, inhibition of MAO-A.

Bounds are passed on as bounds.

For `CNC(=O)c1ccc2c(c1)S(=O)(=O)c1ccccc1C2=O` [Compound I, 3-N-methylcarbamoylthioxanthen-9-one 10,10-dioxide], the “Inhibition of MAO-A (in words)” value on MAO-A [1] and on MAO-A [2] was “potent selective inhibition of MAO-A” each time. Moreover, the IC50 at MAO-A [1] (setting [5]) and on MAO-A [2] (setting [5]) was 50 nM each time. At MAO-A [3] (serotonin as substrate, mitochondrial extracts of rat or human brain), this molecule showed a Ki of 16 nM. In addition, in the data set on MAO-A [3] (vs. the substrates, serotonin or tyramine), the Mechanism of inhibition result was “competitive”. In addition, the “Percentage Inhibition of MAO-A, Brain” value in the data set with MAO-A (brain) (12.5 mg/kg p.o.) was 37 ± 16%; in the data set on MAO-A (brain) (25 mg/kg p.o.), 49 ± 10%; in the data set on MAO-A (brain) (50 mg/kg p.o.) it was 78 ± 2%. In the data set on MAO-A (brain), the “Inhibition of brain MAO-A by the time of tyramine administration” value was “approximately 80%”. For the same molecule, the “Percentage Inhibition of MAO-A, Liver” value in the data set with MAO-A (liver) (12.5 mg/kg p.o.) is reported as 79 ± 5%; with MAO-A (liver) (25 mg/kg p.o.), 94 ± 4%; in the data set with MAO-A (liver) (50 mg/kg p.o.), 92 ± 4%. In addition, the “Inhibition of liver MAO-A by the time of tyramine administration” value with MAO-A (liver) is at least 90%. Moreover, the “Inhibition of MAO-B, brain” value with MAO-B (brain) is recorded as “no significant inhibition of MAO-B in either tissue”. For the same molecule, in the data set with MAO-B (liver), the “Inhibition of MAO-B, liver” value is “no significant inhibition of MAO-B in either tissue”. The “Reversibility of the in vivo inhibition” value in the data set with MAO is listed as “indicating reversibility of the in vivo inhibition”. In the data set with MAO, the “Time of maximum inhibition” value lay in the range of 3 to 7 h. For the same molecule, the “Inhibition at 24 hours after dosing” value with MAO (24 hours after dosing) is on record as “negligible”. In the data set with hypertensive activity, the “Hypertensive activity (in words)” value was “No significant hypertensive activity”. For the same molecule, the ED50 in [4] (Mus musculus, 1.5 h, oral, 90 minutes, tetrabenazine 35 mg/kg i.p.) stood at 49 ± 10 mg/kg. The “Prevention of tetrabenazine-induced sedation (in words)” value in [4] (oral, 90 minutes, tetrabenazine 35 mg/kg i.p.) was “dose-dependent prevention of tetrabenazine-induced sedation”. Further, the “ED50 at 3 hr after treatment (in words)” value in [4] (oral, 3 hr after treatment, tetrabenazine 35 mg/kg i.p.) is “essentially the same as those found at 90 min”. Also, in data set [4] (oral, 5 hr after treatment, tetrabenazine 35 mg/kg i.p.), the “ED50 at 5 hr after treatment (in words)” value was “essentially the same as those found at 90 min”.

For the molecule `NNCCc1ccccc1` [phenelzine, reference compound], in the data set with MAO-A (brain), the “Inhibition of brain MAO-A by the time of tyramine administration” value is on record as “approximately 80%”. The “Inhibition of liver MAO-A by the time of tyramine administration” value in the data set with MAO-A (liver) is listed as at least 90%.

Consider `COc1cc2c(cc1OC)C1CC(=O)C(CC(C)C)CN1CC2` (stereo not drawn) [tetrabenazine, reference compound], for which, in [4] (tetrabenazine 35 mg/kg i.p. (challenge agent)), the “Treated mice remaining motionless with marked blepharoptosis” value is 90-100%.
